Experimental data as given in US12686664B2, “SOCE inhibitors and therapeutic uses thereof” (Institut National de la Santé et de la Recherche Médicale …, priority 2020, dated 2026).
Counter-ions that a name gives are not always drawn. Like-named read-outs stand apart in the source and are kept apart here. Marks after values point to notes of the source that are not given here.

System: store-operated Ca^2+ entry in PLP-B lymphocytes
Test: Store-operated Ca2+ entry after thapsigargin depletion of ER Ca2+ stores in PLP-B lymphocytes
Format: cell-based
Details: for inhibition at 50 µM / inhibition at 100 µM / inhibition at 1 µM / inhibition at 10 µM / Effect on amplitude of SOCE peak / Effect on amplitude of Tg Peak / inhibition at 0.1 µM: PLP-B lymphocytes, % of inhibition (−) or activation; for IC50: SOCE in PLP-B lymphocytes, average of three assays, ±0.5 μM
Protocol: The effects of the molecules developed were tested on PLP-B lymphocytes. Store-operated Ca^2+ entry was induced by depletion of Endoplasmic Reticulum Ca^2+ stores (ER Ca^2+ stores) with thapsigargin (Tg) in a Ca^2+-free medium and measured following the addition of 1.8 mM of CaCl2) in the extracellular medium. The results are compared to the results obtained for known SOCE inhibitors SKF-96365, GSK-7975A, Synta 66.

[1] = Lymphocyte, 50 μM, DMSO control 100%, read-out: Effect on amplitude of SOCE Peak
[2] = Lymphocyte, 100 μM, DMSO control 100%, read-out: Effect on amplitude of SOCE Peak
[3] = Lymphocyte, 1 μM, DMSO control 100%, read-out: Effect on amplitude of SOCE Peak
[4] = Lymphocyte, 1 μM, thapsigargin (Tg) peak, read-out: Effect on amplitude of Tg Peak
[5] = Lymphocyte, 10 μM, DMSO control 100%, read-out: Effect on amplitude of SOCE Peak
[6] = Lymphocyte, 10 μM, thapsigargin (Tg) peak, read-out: Effect on amplitude of Tg Peak
[7] = Lymphocyte, 50 μM, thapsigargin (Tg) peak, read-out: Effect on amplitude of Tg Peak
[8] = Lymphocyte, 100 μM, thapsigargin (Tg) peak, read-out: Effect on amplitude of Tg Peak
[9] = Lymphocyte, DMSO control 100%, read-out: Effect on amplitude of SOCE Peak

Compound | inhibition at 50 µM [1] [%] | inhibition at 100 µM [2] [%] | inhibition at 10 µM [5] [%] | inhibition at 10 µM [6] [%] | inhibition at 50 µM [7] [%] | inhibition at 100 µM [8] [%] | also measured
COc1ccc(CCOc2ccc(CCn3nc(C(F)(F)F)cc3C(F)(F)F)cc2)cc1 [6βv DAD 2.266] | 29 | 30 |  |  |  |  | 
COc1ccc(CCCOc2ccc(CCn3cnc4ccccc43)cc2)cc1 [6αn DAD 3-474] | -4 | 25 | -16 | 5 | -5 | 3 | inhibition at 1 µM [3]: -1%; inhibition at 1 µM [4]: 11%
COCOc1ccc(CCn2cnc3ccccc32)cc1 [6αad VAL3.31, 1-(4-(Methoxymethoxy)phenethyl)-1H-benzo[d]imidazole] | -54 | -5 | -51 | 10 | 9 | 15 | 
Fc1ccc(CCOc2ccc(CCn3cnc4ccccc43)cc2)cc1 [6αd DAD 4-568] | -1.3 | 64 | 7.8 | 8.5 | 5.3 | 15.1 | 
COc1ccc(COc2ccc(CCn3c(C(F)(F)F)nc4cc(N)ccc43)cc2)cc1 [6αt VAL 1-76] | 10 | 34 | 3 | -1 | -6 | 22 | 
COc1ccc(CCCOc2ccc(CCn3cncn3)cc2)cc1 [6βe DAD 3.470] |  |  |  |  |  | 31 | Effect on amplitude of SOCE peak (50 μM, DMSO control 100%, listed as 6βe): −6.0%; Effect on amplitude of Tg Peak (50 μM, thapsigargin (Tg) peak, listed as 6βe): −31.0# %; Effect on amplitude of SOCE peak (100 μM, DMSO control 100%, listed as 6βe): −21.0# %
Oc1ccc(Cn2cnc3cc(F)ccc32)cc1 [9αe] | 5 | 21 | -6 | 3 | 8 | 15 | 
c1ccc(OCCCOc2ccc(CCn3cnc4ccccc43)cc2)cc1 [6αs DAD 4-570] | 19 | 56.9 | 9.4 | 10.6 | -0.7 | 4.1 | 
COc1ccc(COc2ccc(CCn3cnc4ccccc43)cc2)cc1 [6αz DAD 4-472] | 13.7 | -5.9 | 15.4 | 1.6 | 1.9 | 1.5 | 
COc1ccc(CCOc2ccc(CCn3cccn3)cc2)cc1 [6βn DAD 2.307] | 7.2 | 62 | -6.5 |  |  |  | 
COc1ccc(CCOc2ccc(CCn3c(C(F)(F)F)nc4cc(N)ccc43)cc2)cc1 [6αm VAL 1-77] | 12 | 55 | -4 | 1 | 1 | 11 | 
COc1ccc(COc2ccc(CCn3nc(C(F)(F)F)cc3C(F)(F)F)cc2)cc1 [6βu DAD 2.334] | -0.2 | -0.4 | 2 |  |  |  | 
COc1ccc(CCCOc2ccc(CCn3cccn3)cc2)cc1 [Compound 6βp] |  |  |  |  |  |  | inhibition at 1 µM [3]: -16%; IC50 (Lymphocyte): 25 µM
COc1ccc(OC)c(-c2ccc(NC(=O)c3ccncc3F)cc2)c1 [Synta 66, reference compound] |  |  |  |  |  |  | Effect on amplitude of SOCE peak (1 μM, DMSO control 100%): 9.0%; Effect on amplitude of SOCE peak (10 μM, DMSO control 100%): 6.0%; Effect on amplitude of SOCE peak (50 μM, DMSO control 100%): −74.0%; Effect on amplitude of SOCE peak (100 μM, DMSO control 100%): −89.0%; IC50: 8.8 µM
Oc1ccc(Cn2cnc3ccccc32)cc1 [9αa, 1-(4-hydroxyphenylmethyl)-1H-Benzo[d]imidazol] | 4 | -3 | -2 | -13 | 1 | 12 | 
Oc1ccc(Cn2c(C(F)(F)F)nc3ccccc32)cc1 [9αc, 1-(4-hydroxyphenylmethyl)-2-trifluoromethyl-1H-Benzo[d]imidazol] | 16 | 33 | 23 | 6 | -1 | -6 | 
Fc1ccc2c(c1)ncn2CCc1ccc(OCCc2ccc(OC3CCCCO3)cc2)cc1 (centres unmarked) [11αc, 5-Fluoro-1-(4-(4-((tetrahydro-2H-pyran-2-yl)oxy)phenethoxy)phenethyl)-1H-benzo[d]imidazole] | 54 | 35 | 31 | 10 | 12 | -3 | inhibition at 0.1 µM [9]: -67%; inhibition at 0.1 µM (Lymphocyte, thapsigargin (Tg) peak, read-out: Effect on amplitude of Tg Peak): -16%; inhibition at 1 µM [3]: -26%; inhibition at 1 µM [4]: -4%; IC50 (Lymphocyte): 1.6 µM
COc1ccc(CCOc2cccc(CCn3cnc4ccccc43)c2)cc1 [6αp DAD 4-552] | 29 | 71 |  |  | 15 | 7 | 
FC(F)(F)c1cc(C(F)(F)F)n(CCc2ccccc2OCCc2ccccc2)n1 [6βaa DAD 3.535] | 20 | 29 | 18 | 8 | 4 | 11 | 
c1ccc2c(c1)cnn2CCc1ccc(OC2CCCCO2)cc1 (centres unmarked) [11αe, 1-(4-((Tetrahydro-2H-pyran-2-yl)oxy)phenethyl)-1H-indazole] | 54 | 88 | 33 | 8 | 9 | 20 | inhibition at 0.1 µM [9]: 23%; inhibition at 1 µM [3]: 20%; IC50 (Lymphocyte): 40 µM
CS(=O)(=O)Oc1ccc(Cn2nc(C(F)(F)F)cc2C(F)(F)F)cc1 [8βc] | 22 | 31 | 12 | -4 | 2 | 21 | 
COCOc1ccc(CCn2ncc3ccccc32)cc1 [6αae VAL3.32, 1-(4-(Methoxymethoxy)phenethyl)-1H-indazole] | -23 | 24 | -39 | 26 | 19 | 27 | 
1-(4-(Methoxymethoxy)-2-(trifluoromethyl)-1H-benzo[d]imidazole [6αaf VAL3.33] |  |  |  |  |  |  | Effect on amplitude of SOCE peak (10 μM, DMSO control 100%): 40.0# %; Effect on amplitude of Tg Peak (10 μM, thapsigargin (Tg) peak): −29.0# %; Effect on amplitude of SOCE peak (50 μM, DMSO control 100%): 1.0%; Effect on amplitude of Tg Peak (50 μM, thapsigargin (Tg) peak): −34.0# %; Effect on amplitude of SOCE peak (100 μM, DMSO control 100%): −2.0%; Effect on amplitude of Tg Peak (100 μM, thapsigargin (Tg) peak): −38.0# %
COc1cccc(CCOc2ccc(CCn3cnc4ccccc43)cc2)c1 [6αad DAD 4-567] | 81.7 | 84.3 | 28.1 | 5.7 | 9.1 |  | inhibition at 0.1 µM [9]: -12.9%; inhibition at 1 µM [3]: -2.9%; inhibition at 1 µM [4]: 16.2%
Oc1ccc(CCOc2ccc(CCn3cnc4cc(F)ccc43)cc2)cc1 [12αc, 5-Fluoro-1-(4-(4-hydroxyphenethoxy)phenethyl)-1H-benzo[d]imidazol hydrochloride] | -3 | -1 | -20 | -11 | -2 | -5 | 
COc1ccc(CCCOc2cccc(CCn3ccc(C(F)(F)F)n3)c2)cc1 [6βy DAD 3.531] | 34 | 64 | 13 | 17 | 23 | 30 | 
c1ccc(CCCOc2ccc(CCn3ncc4ccccc43)cc2)cc1 [6αab DAD 4-575] | 2.9 | 43.6 | -20.8 | 8.9 | 20.7 | 24.2 | 
